Results: ChEMBL document CHEMBL1127046, “Antitumor agents. 3. Synthesis and biological activity of 4 beta-alkyl derivatives containing hydroxy, amino, and amido groups of 4'-O-demethyl-4-desoxypodophyllotoxin as antitumor agents” (J Med Chem, 1993)

What was measured:
Tubulin = Tubulin (Bos taurus, UniProt Q6B856+Q862L2+Q862F3); assay: Drug concentration needed to produce a 50% reduction of bovine brain tubulin polymerization relative to the control
[1] = Inhibition of DNA topoisomerase II from rat liver measured as 50% reduction in the amount of minicircle DNA relative to the control
P388 = assay: Cytotoxicity against P388 leukemia; type: functional, cell-based; settings: Mus musculus
L1210 [2] = assay: Antitumor activity in vivo expressed as the percentage increase in life span at the dose of 10 (mg/kg/day); type: functional, Mus musculus
L1210 [3] = assay: The number of mice survived for 30 days at the dose of 10 (mg/kg/day); type: functional, Mus musculus

| SMILES | IC50 (Tubulin) [µM] | IC50 [1] [µM] | IC50 (P388) [µM] | ILS max (L1210 [2]) [%] | Survivors (L1210 [3]) |
| --- | --- | --- | --- | --- | --- |
| COc1cc([C@@H]2c3cc4c(cc3[C@@H](CC(=O)N3CCC(N5CCCCC5)CC3)C3COC(=O)[C@@H]32)OCO4)cc(OC)c1O.Cl (stereo partly drawn) | > 100 | 266 | 0.0084 | – | – |
| COc1cc([C@@H]2c3cc4c(cc3[C@@H](CCN3CCOCC3)C3COC(=O)[C@@H]32)OCO4)cc(OC)c1O.Cl (stereo partly drawn) | > 167 | 58.3 | 0.026 | 81 | 0 |
| COc1cc([C@@H]2c3cc4c(cc3[C@@H](CC(=O)O)C3COC(=O)[C@@H]32)OCO4)cc(OC)c1O (stereo partly drawn) | – | – | 15 | – | – |
| COc1cc([C@@H]2c3cc4c(cc3[C@@H](CCN(C)C(CO)CO)C3COC(=O)[C@@H]32)OCO4)cc(OC)c1O.Cl (stereo partly drawn) | > 167 | 25.1 | 0.66 | – | – |
| COc1cc([C@@H]2c3cc4c(cc3[C@@H](CCN(C)Cc3ccncc3)C3COC(=O)[C@@H]32)OCO4)cc(OC)c1O.Cl.Cl (stereo partly drawn) | > 100 | 31.4 | 0.1 | – | – |
| COc1cc([C@@H]2c3cc4c(cc3[C@@H](CCN(C)Cc3ccccn3)C3COC(=O)[C@@H]32)OCO4)cc(OC)c1O.Cl.Cl (stereo partly drawn) | > 100 | 31.4 | 0.14 | – | – |
| COc1cc([C@@H]2c3cc4c(cc3[C@@H](CC(=O)N(C)CCN(C)C)C3COC(=O)[C@@H]32)OCO4)cc(OC)c1O.Cl (stereo partly drawn) | > 100 | 252 | 0.032 | – | – |
| COc1cc([C@@H]2c3cc4c(cc3[C@@H](CCN3CCC[C@@H]3CO)C3COC(=O)[C@@H]32)OCO4)cc(OC)c1O.Cl (stereo partly drawn) | > 62 | 112 | 0.063 | – | – |
| COc1cc([C@@H]2c3cc4c(cc3[C@@H](CC(=O)NCc3ccncc3)C3COC(=O)[C@@H]32)OCO4)cc(OC)c1O.Cl (stereo partly drawn) | > 100 | – | 2.2 | – | – |
| COc1cc([C@@H]2c3cc4c(cc3[C@@H](CCNCCN(C)C)C3COC(=O)[C@@H]32)OCO4)cc(OC)c1O.Cl.Cl (stereo partly drawn) | > 100 | 13.3 | 0.04 | – | – |
| COc1cc([C@@H]2c3cc4c(cc3[C@@H](CCCN(C)C)C3COC(=O)[C@@H]32)OCO4)cc(OC)c1O.Cl (stereo partly drawn) | > 167 | 73.5 | 0.012 | – | – |
| COCCN(C)CC[C@@H]1c2cc3c(cc2[C@@H](c2cc(OC)c(O)c(OC)c2)[C@H]2C(=O)OCC12)OCO3.Cl (stereo partly drawn) | > 100 | 75.8 | 0.16 | – | – |
| COc1cc([C@@H]2c3cc4c(cc3[C@@H](CCN(C)CCO)C3COC(=O)[C@@H]32)OCO4)cc(OC)c1O.Cl (stereo partly drawn) | > 100 | 17.2 | 0.07 | – | – |
| CCN(CC)CCN(C)CC[C@@H]1c2cc3c(cc2[C@@H](c2cc(OC)c(O)c(OC)c2)[C@H]2C(=O)OCC12)OCO3.Cl.Cl (stereo partly drawn) | > 100 | 53.8 | 0.037 | – | – |
| COc1cc([C@@H]2c3cc4c(cc3[C@@H](CCN(C)N3CCN(C)CC3)C3COC(=O)[C@@H]32)OCO4)cc(OC)c1O.Cl.Cl (stereo partly drawn) | > 100 | 32.3 | 0.0043 | – | – |
| COc1cc([C@@H]2c3cc4c(cc3[C@@H](CCN(C)N(C)c3ccccc3)C3COC(=O)[C@@H]32)OCO4)cc(OC)c1O (stereo partly drawn) | – | – | > 1 | – | – |
| COc1cc([C@@H]2c3cc4c(cc3[C@@H](CCCO)C3COC(=O)[C@@H]32)OCO4)cc(OC)c1O (stereo partly drawn) | 26 | 42.1 | 0.05 | – | – |
| COc1cc([C@@H]2c3cc4c(cc3[C@@H](CC(=O)NCCc3cccn3C)C3COC(=O)[C@@H]32)OCO4)cc(OC)c1O.Cl (stereo partly drawn) | > 100 | – | 1.5 | – | – |
| COc1cc([C@@H]2c3cc4c(cc3[C@@H](CCO)C3COC(=O)[C@@H]32)OCO4)cc(OC)c1O (stereo partly drawn) | 2 | 13.8 | 0.05 | – | – |
| COc1cc([C@@H]2c3cc4c(cc3[C@@H](CCN3CCCCC3)C3COC(=O)[C@@H]32)OCO4)cc(OC)c1O.Cl (stereo partly drawn) | > 167 | 67.7 | 0.012 | – | – |
| COc1cc([C@@H]2c3cc4c(cc3[C@@H](CCN(C)CCCCCCN(C)C)C3COC(=O)[C@@H]32)OCO4)cc(OC)c1O.Cl.Cl (stereo partly drawn) | > 133 | 30 | 0.037 | – | – |
| COc1cc([C@@H]2c3cc4c(cc3[C@@H](CC(=O)NCCN3CCOCC3)C3COC(=O)[C@@H]32)OCO4)cc(OC)c1O.Cl (stereo partly drawn) | > 100 | – | 0.22 | – | – |
| COc1cc([C@@H]2c3cc4c(cc3[C@@H](CCN(C)Cc3ccccc3)C3COC(=O)[C@@H]32)OCO4)cc(OC)c1O.Cl (stereo partly drawn) | > 167 | 97.3 | 0.15 | 53 | 0 |
| COc1cc([C@@H]2c3cc4c(cc3[C@@H](CCN(C)CCN3CCOCC3)C3COC(=O)[C@@H]32)OCO4)cc(OC)c1O.Cl.Cl (stereo partly drawn) | > 167 | 116 | 0.26 | – | – |
| COc1cc([C@@H]2c3cc4c(cc3[C@@H](CC(=O)NCCN3CCCCC3)C3COC(=O)[C@@H]32)OCO4)cc(OC)c1O.Cl (stereo partly drawn) | > 100 | 60.6 | 3 | – | – |
| COc1cc([C@@H]2c3cc4c(cc3[C@@H](CCN(C)CCCN(C)C)C3COC(=O)[C@@H]32)OCO4)cc(OC)c1O.Cl.Cl (stereo partly drawn) | > 100 | 26.9 | 0.055 | – | – |
| COc1cc([C@@H]2c3cc4c(cc3[C@@H](CCN(C)C3CCCCC3)C3COC(=O)[C@@H]32)OCO4)cc(OC)c1O.Cl (stereo partly drawn) | > 167 | 60.9 | 0.033 | – | – |
